Test [1] addresses T1, Ubiquitin-like modifier-activating enzyme 1 (Homo sapiens) (UniProt P22314).
T1 sequence (whole entry): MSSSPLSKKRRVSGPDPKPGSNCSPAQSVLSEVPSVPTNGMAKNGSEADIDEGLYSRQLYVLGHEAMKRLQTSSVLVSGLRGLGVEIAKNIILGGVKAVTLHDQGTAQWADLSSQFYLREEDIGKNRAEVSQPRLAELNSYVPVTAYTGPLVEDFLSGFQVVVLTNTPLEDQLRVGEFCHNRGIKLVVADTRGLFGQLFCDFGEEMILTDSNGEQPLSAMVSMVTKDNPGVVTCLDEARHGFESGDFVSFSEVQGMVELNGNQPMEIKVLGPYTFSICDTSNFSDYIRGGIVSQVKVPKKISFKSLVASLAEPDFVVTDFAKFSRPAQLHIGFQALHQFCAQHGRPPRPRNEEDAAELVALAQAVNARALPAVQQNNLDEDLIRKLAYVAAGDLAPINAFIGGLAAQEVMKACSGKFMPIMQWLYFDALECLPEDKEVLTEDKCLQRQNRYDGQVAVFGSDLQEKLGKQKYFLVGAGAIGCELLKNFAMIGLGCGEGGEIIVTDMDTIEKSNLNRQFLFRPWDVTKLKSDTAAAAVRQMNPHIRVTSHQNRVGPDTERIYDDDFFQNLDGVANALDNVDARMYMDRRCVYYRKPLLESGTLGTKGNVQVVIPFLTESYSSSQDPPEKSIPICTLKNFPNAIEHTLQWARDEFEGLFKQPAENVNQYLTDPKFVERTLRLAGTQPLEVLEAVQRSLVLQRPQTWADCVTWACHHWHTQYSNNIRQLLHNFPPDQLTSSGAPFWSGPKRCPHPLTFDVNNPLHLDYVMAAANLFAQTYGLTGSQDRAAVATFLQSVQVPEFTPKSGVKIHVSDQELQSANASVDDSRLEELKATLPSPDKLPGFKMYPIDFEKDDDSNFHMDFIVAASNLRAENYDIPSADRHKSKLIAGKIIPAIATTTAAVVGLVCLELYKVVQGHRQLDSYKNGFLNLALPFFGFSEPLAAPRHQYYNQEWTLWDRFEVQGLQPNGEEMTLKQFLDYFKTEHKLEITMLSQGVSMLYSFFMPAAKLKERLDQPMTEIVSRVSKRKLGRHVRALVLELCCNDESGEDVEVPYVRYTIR
As to the kind of experiment: Inhibition of GST-tagged ubiquitin binding to FLAG-tagged E1 at 50 uM after 20 mins by immunoprecipitation analysis.

For test [2], the target named is T2, Ubiquitin-like modifier-activating enzyme 1 (Homo sapiens, UniProt P22314).
T2 sequence (P22314 whole entry): T1 sequence (whole entry)
As to the kind of experiment: (§1) Inhibition of FLAG-tagged ubiquitin-activating enzyme E1 assessed as inhibition of GST-ubiquitin/FLAG-E1 intermediate formation by Western blot analysis. Background: A western blot detects proteins with antibodies after separation by electrophoresis.

Test [3] has as its target T1, Ubiquitin-like modifier-activating enzyme 1 (Homo sapiens). The description is as §1.
For the next test, the system named is HeLa. Nature of the test: Cytotoxicity against human HeLa cells at 50 ug/mL. In kind it is functional, cell-based.
The target of test [4] is T2, Ubiquitin-like modifier-activating enzyme 1. As to the kind of experiment: Inhibition of recombinant fluorescein-tagged E1 assessed as inhibition of ubiquitin-E1 adduct formation incubated for 15 mins prior to ATP addition measured after 5 mins by SDS PAGE analysis.
For test [5] the target is unchanged. Nature of the test: Inhibition of ubiquitin-activating enzyme E1.
In test [6] the target is T1, Ubiquitin-like modifier-activating enzyme 1 (Homo sapiens). As to the kind of experiment: Inhibition of FLAG-tagged ubiquitin-activating enzyme E1 assessed as inhibition of GST-ubiquitin/FLAG-E1 intermediate formation at 100 uM by Western blot analysis.

Active and inactive are the calls of the source. The calls are words filed in the database; no cut-off is given here.

For `C[C@@H](CC(=O)NC(=O)c1coc(/C=C/CCCCCCCCC(=O)O)cc1=O)C(=O)O`, the inhibition entry in test [1] was “Active”. Usually IC50 stands for the point on the concentration scale where inhibition reaches its midpoint. For `O=C(O)[C@@H]1Cc2c([nH]c3ccc(O)cc23)[C@H](Cc2c[nH]cn2)N1` [HYRTIORETICULIN B], in test [2], the IC50 stood at 35 µM. For the same compound, in test [3], the inhibition result was “Dose-dependent effect”. Besides, in test [1], the inhibition entry was “inactive”. Further, in the test with HeLa, the outcome was inactive. `C[C@@H]1N[C@H](C(=O)O)Cc2c[nH]c3ccc(O)c1c23`: the result in the test on HeLa was inactive. `O=C(O)[C@@H]1Cc2c([nH]c3ccc(O)cc23)[C@@H](Cc2cnc[nH]2)N1` [HYRTIORETICULIN A]: in test [2], the IC50 is 2.4 µM.

On to `CCCCCCCC(=O)SCC/C=C/[C@@H]1CC(=O)NCc2nc(cs2)C2=N[C@@](C)(CS2)C(=O)N[C@@H](C(C)C)C(=O)O1` [LARGAZOLE], for which, in test [4], the IC50 stood at 29 µM.

`CC(C)(O)/C=C/[C@@]12[C@H]3[C@@H](O)[C@@H]4O[C@@H]4[C@]1(O)OC(C)(C)[C@H]2C=C1C(=O)[C@H]2O[C@H]2[C@H](O)[C@H]13` [PANEPOPHENANTHRINE]: half-maximal inhibition in test [5] (IC50) required 40 µM. Turning to `O=C(O)[C@@H]1Cc2c([nH]c3ccc(O)cc23)[C@@H](Cc2c[nH]cn2)N1`, the inhibition result in test [3] is “Dose-dependent effect”. Further, in test [1], the inhibition entry was “inactive”. In addition, in the test on HeLa, the outcome was inactive.

In the case of `C[C@H]1N[C@H](C(=O)O)Cc2c[nH]c3ccc(O)c1c23`, in the test on HeLa, the outcome was inactive. With `C[C@H]1N[C@H](C(=O)O)Cc2c1[nH]c1ccc(O)cc21`, the result in the test on HeLa was inactive. As to `C[C@H]1N[C@@H](C(=O)O)Cc2c1[nH]c1ccc(O)cc21`, the inhibition result in test [6] is “Active”. Moreover, the result with HeLa was inactive.

The values are drawn from ChEMBL document CHEMBL2046383, “Hyrtioreticulins A-E, indole alkaloids inhibiting the ubiquitin-activating enzyme, from the marine sponge Hyrtios reticulatus” (Bioorg Med Chem, 2012).
